Laboratory results from paper PMC7496931, “Activation of Sirtuin 2 Inhibitors Employing Photoswitchable Geometry and Aqueous Solubility” (Chemmedchem, 2020).
Several values for one entry are separate records, joined by “and”; a condition that tells them apart may be missing. Identical values can stand only once. Like-named read-outs stand apart in the source and are kept apart here.

Key:
Assay type in all cases: biochemical
Sirt3 = target: T1, Sirt3 (Homo sapiens, UniProt Q9NTG7); experiment: Fluorescence-based ZMAL deacetylase activity assay, Sirt3; parameters: key to Sirt3 inhibition Δ (class) / Sirt3 inhibition PSS [365 nm] (class): n.i.: no inhibition detected (<30 % @ 100 μM); u.i.: unspecific interactions
T1 construct: Expression and purification of Sirt1_133−747, Sirt2_56−356, and Sirt3_118−395 was carried out as described previously; made in house
T1 sequence (Q9NTG7 118-395): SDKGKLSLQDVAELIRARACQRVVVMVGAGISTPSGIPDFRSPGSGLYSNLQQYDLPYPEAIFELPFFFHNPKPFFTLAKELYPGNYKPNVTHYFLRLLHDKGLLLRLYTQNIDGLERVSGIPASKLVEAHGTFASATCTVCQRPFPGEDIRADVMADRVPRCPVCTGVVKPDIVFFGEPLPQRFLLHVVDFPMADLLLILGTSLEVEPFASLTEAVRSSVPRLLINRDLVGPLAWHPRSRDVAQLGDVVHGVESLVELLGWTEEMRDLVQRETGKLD
Experimental: (§1) The effect of the compounds on deacetylase activity of three human sirtuin isotypes (Sirt1–3) was investigated by a homogeneous fluorescence‐based assay, using (Z)‐Lys(acetyl)‐AMC (ZMAL) as substrate. In order to determine the impact of photoisomerization, the respective compounds were irradiated (365 nm, 5 min) in DMSO prior to incubation in the enzyme assay mixture. The results of the irradiated probes were finally compared to non‐irradiated measurements.
(§2) Cloning, expression and purification of recombinant proteins: Expression and purification of Sirt1_133−747, Sirt2_56−356, and Sirt3_118−395 was carried out as described previously.27 Identity and purity were verified by SDS‐PAGE.
(§3) Fluorescence‐based activity assay: The inhibitory effect of compounds on Sirt1–3 was detected via a previously reported fluorescence‐based assay.29 The synthetic substrate (Z)‐Lys(acetyl)‐AMC (ZMAL) is deacetylated by sirtuins, followed by tryptic digestion and thereby release of 7‐aminomethylcoumarin, leading to a fluorescent readout. Inhibition was determined by comparing percentage substrate conversion to a DMSO control after subtraction of the blank fluorescence signal. All compounds were tested at 100 or 50 μM and 10 μM respectively. […] IC50 values were calculated with OriginPro 9.0 G using a non‐linear regression to fit the dose response curve (Figure S6). An enzyme‐free blank control and a 100 % conversion control using AMC instead of ZMAL were measured as well. Inhibition measurements were performed in biological duplicates for all compounds. […]
(§4) Fluorescence-Based Activity Assay (ZMAL-Assay)
(§5) The influence of the synthesized compounds on the deacetylase activity of the class I sirtuins Sirt1–3 was determined in a homogenous fluorescence-based enzyme assay, using the artificial substrate Z-(Ac)Lys-AMC (ZMAL). ZMAL is processed by sirtuins yielding Z-Lys-AMC.
(§6) The latter is subsequently cleaved by tryptic digestion, releasing 7-amino-4-methylcoumarin (AMC), excitation of which leads to a fluorescent read out (λex=390 nm; λem=460 nm). Instead, […]
(§7) contribute to the fluorescence signal. Therefore, the fluorescence intensity is proportional to the activity of the respective sirtuin.
(§8) After subtraction of the blank fluorescence signal (without enzyme) from the signal of the respective probe, the residual signal intensity is related to a 100 % conversion control (AMC), […]
(§9) yielding the percentage substrate conversion. Comparison of the determined substrate conversion with a no-inhibition DMSO control yields the percentage inhibition at the respective […]
(§10) For determination of IC50, inhibitory activity of the respective compound was determined at 8 to 10 distinct concentrations. The measured values were analysed by a non-linear fit to the dose-response curve using a four parameter logistic model (Figure S6):
(§11) Figure S6: Non-linear regression of the dose-response curves of compounds 15c and 15f at the thermal equilibrium (∆, black) and after 5 minutes of 365 nm irradiation (red). […]
(§12) A maximal polarization control using just DMSO and a minimal polarization control using 1 µL of the 400 µM solution of 22 instead of inhibitor were performed as well as a blank control containing 1 µL of DMSO in 19 µL assay buffer. The mixture was incubated 10 min at 37 °C

Sirt2 = target: T2, Sirt2 (Homo sapiens, UniProt Q8IXJ6); experiment: Fluorescence-based ZMAL deacetylase activity assay, Sirt2; details: for decrease of Sirt2 inhibition upon 365 nm irradiation (factor): PSS 365 nm versus thermal equilibrium
T2 construct: Expression and purification of Sirt1_133−747, Sirt2_56−356, and Sirt3_118−395 was carried out as described previously; made in house
T2 sequence (Q8IXJ6 56-356): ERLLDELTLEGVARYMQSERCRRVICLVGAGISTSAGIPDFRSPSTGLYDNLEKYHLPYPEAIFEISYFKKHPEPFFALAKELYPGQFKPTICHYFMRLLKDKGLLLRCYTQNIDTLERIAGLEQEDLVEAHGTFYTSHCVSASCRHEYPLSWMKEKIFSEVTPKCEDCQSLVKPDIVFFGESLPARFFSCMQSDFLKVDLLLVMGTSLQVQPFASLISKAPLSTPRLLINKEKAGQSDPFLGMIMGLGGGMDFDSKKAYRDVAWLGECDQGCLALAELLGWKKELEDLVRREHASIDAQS
Experimental: as §1, §2, §3, §4, §5, §6, §7, §8, §9, §10, §11, §12

Sirt1 = target: T3, Sirt1 (Homo sapiens, UniProt Q96EB6); experiment: Fluorescence-based ZMAL deacetylase activity assay, Sirt1
T3 construct: Expression and purification of Sirt1_133−747, Sirt2_56−356, and Sirt3_118−395 was carried out as described previously; made in house
T3 sequence (Q96EB6 133-747): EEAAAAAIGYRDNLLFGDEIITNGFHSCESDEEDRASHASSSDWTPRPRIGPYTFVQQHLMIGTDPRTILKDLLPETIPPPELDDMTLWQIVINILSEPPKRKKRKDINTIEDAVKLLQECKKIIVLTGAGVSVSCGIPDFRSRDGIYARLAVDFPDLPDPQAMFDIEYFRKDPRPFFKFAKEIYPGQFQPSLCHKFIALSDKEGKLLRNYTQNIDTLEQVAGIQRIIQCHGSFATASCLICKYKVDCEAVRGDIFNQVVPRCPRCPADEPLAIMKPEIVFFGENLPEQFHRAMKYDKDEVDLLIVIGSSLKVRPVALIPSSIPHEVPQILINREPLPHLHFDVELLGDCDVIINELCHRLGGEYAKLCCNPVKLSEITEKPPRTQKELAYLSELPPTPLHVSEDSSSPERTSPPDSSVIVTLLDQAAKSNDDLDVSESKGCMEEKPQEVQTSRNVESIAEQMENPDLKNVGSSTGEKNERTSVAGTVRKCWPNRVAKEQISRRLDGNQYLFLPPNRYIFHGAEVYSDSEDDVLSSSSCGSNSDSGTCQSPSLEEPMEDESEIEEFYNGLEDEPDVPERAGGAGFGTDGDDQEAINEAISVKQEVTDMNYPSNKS
Experimental: as §1, §2, §3, §4, §5, §6, §7, §8, §9, §10, §11
A maximal polarization control using just DMSO and a minimal polarization control using 1 µL of the 400 µM solution of 22 instead of inhibitor were performed as well as a blank control containing 1 µL of DMSO in 19 µL assay buffer. The mixture was incubated 10 min at 37 °C […]
(1 picture or pasted object on this page, not shown here)

[1] = PSS after 5 min UV irradiation (365 nm), read-out: Sirt3 inhibition PSS [365 nm], percent inhibition
[2] = PSS after 5 min UV irradiation (365 nm), read-out: Sirt2 inhibition PSS [365 nm], percent inhibition
[3] = thermal equilibrium (Δ), read-out: Sirt2 inhibition Δ, percent inhibition
[4] = PSS after 5 min UV irradiation (365 nm), read-out: Sirt1 inhibition PSS [365 nm] (class)
[5] = thermal equilibrium (Δ), read-out: Sirt1 inhibition Δ (class)
[6] = thermal equilibrium (Δ), read-out: Sirt3 inhibition Δ, percent inhibition
[7] = PSS after 5 min UV irradiation (365 nm), read-out: Sirt2 inhibition PSS [365 nm], percent inhibition (converted)
[8] = thermal equilibrium (Δ), read-out: Sirt2 inhibition Δ, percent inhibition (converted)
[9] = PSS after 5 min UV irradiation (365 nm)
[10] = PSS after 5 min UV irradiation (365 nm), read-out: Sirt2 inhibition PSS [365 nm], IC50
[11] = thermal equilibrium (Δ), read-out: Sirt2 inhibition Δ, IC50
[12] = PSS after 5 min UV irradiation (365 nm), read-out: Sirt3 inhibition PSS [365 nm], IC50
[13] = thermal equilibrium (Δ), read-out: Sirt3 inhibition Δ, IC50
[14] = @ 100 μM, PSS after 5 min UV irradiation (365 nm), read-out: Sirt1 inhibition PSS [365 nm], percent inhibition
[15] = PSS after 5 min UV irradiation (365 nm), read-out: Sirt1 inhibition PSS [365 nm], percent inhibition

inhibition at 100 µM (Sirt1; [4]) [%]	inhibition at 100 µM (Sirt1; [5]) [%]	inhibition at 10 µM (Sirt2; [7]) [%]	inhibition at 10 µM (Sirt2; [8]) [%]	inhibition at 10 µM (Sirt3; [1]) [%]	inhibition at 10 µM (Sirt3; [6]) [%]	IC50 (Sirt2; [10]) [µM]	IC50 (Sirt2; [11])	Structure (SMILES)	further results
< 30	< 30	–	–	–	–	–	–	Cc1cc(/N=N/c2cncc(C(N)=O)c2)cc(C)c1NC(=O)c1ccccc1 [9 h]	inhibition at 100 µM (Sirt3; [1]): 32%; Sirt3 inhibition Δ (class) (Sirt3; thermal equilibrium (Δ)): n.i. (n.i.: no inhibition detected (<30 % @ 100 μM)); inhibition at 100 µM (Sirt2; [2]): 52%; inhibition at 100 µM (Sirt2; [3]): 27%
< 30	< 30	11	17	–	–	–	–	CC(=O)Nc1c(C)cc(/N=N/c2cncc(C(N)=O)c2)cc1C [9 a]	inhibition at 100 µM (Sirt3; [1]): 52%; inhibition at 100 µM (Sirt3; [6]): 68%; inhibition at 100 µM (Sirt2; [3]): 65%
< 30	< 30	15	15	–	–	–	–	Cc1cc(/N=N/c2cncc(C(N)=O)c2)cc(C)c1NC(=O)c1ccc(F)cc1 [9 i]	Sirt3 inhibition PSS [365 nm] (class) (Sirt3; [9]): n.i. (n.i.: no inhibition detected (<30 % @ 100 μM)); Sirt3 inhibition Δ (class) (Sirt3; thermal equilibrium (Δ)): n.i. (n.i.: no inhibition detected (<30 % @ 100 μM))
< 30	< 30	24	40	3	20	–	–	CCCCCC(=O)Nc1c(C)cc(/N=N/c2cncc(C(N)=O)c2)cc1C [9 c]	–
< 30	< 30	–	–	47	34	6.4 ± 0.5	3.2 ± 0.5 µM	NC(=O)c1cncc(OCc2cccc(/N=N/c3ccc(F)cc3)c2)c1 [20 b]	decrease of Sirt2 inhibition upon 365 nm irradiation (factor) (Sirt2): twofold
< 30	< 30	65	46	–	–	–	–	CCCCCCCCCCCC(=O)Nc1c(C)cc(/N=N/c2cncc(C(N)=O)c2)cc1C [9 f]	Sirt3 inhibition PSS [365 nm] (class) (Sirt3; [9]): u.i.; Sirt3 inhibition Δ (class) (Sirt3; thermal equilibrium (Δ)): u.i.
–	< 30	–	–	–	–	8.4 ± 0.9	7.5 ± 0.5 µM	NC(=O)c1cncc(/N=N/c2ccc(Br)cc2)c1 [15 d]	IC50 (Sirt3; [12]): 13 ± 2.2 µM; IC50 (Sirt3; [13]): 8.2 ± 1.4 µM; inhibition at 100 µM (Sirt1; [14]): 47%
–	< 30	–	–	45	42	6.8 ± 0.4	6 ± 1.1 µM	CC(C)(C)OC(=O)c1ccc(/N=N/c2cncc(C(N)=O)c2)cc1 [15 a]	inhibition at 10 µM (Sirt1; [15]): 7%
< 30	< 30	–	–	18	42	37.5 ± 5.2	15.2 ± 1.8 µM	CC(C)(O)C#Cc1ccc(/N=N/c2cncc(C(N)=O)c2)cc1 [15 h]	decrease of Sirt2 inhibition upon 365 nm irradiation (factor) (Sirt2): 2.5 fold
< 30	< 30	–	–	–	–	–	–	Cc1cc(/N=N/c2cncc(C(N)=O)c2)cc(C)c1NC(=O)c1ccc(-c2cccs2)cc1 [9 j]	Sirt3 inhibition PSS [365 nm] (class) (Sirt3; [9]): u.i.; Sirt3 inhibition Δ (class) (Sirt3; thermal equilibrium (Δ)): u.i.; inhibition at 100 µM (Sirt2; [2]): 59%; inhibition at 100 µM (Sirt2; [3]): 80%
–	< 30	61	51	49	54	–	–	CCCCNC(=O)c1ccc(/N=N/c2cncc(C(N)=O)c2)cc1 [15 e]	inhibition at 10 µM (Sirt1; [15]): 10%
–	< 30	–	–	–	–	2.8 ± 0.1	0.9 µM and 0.88 µM	CC(C)(C)OC(=O)NCc1ccc(/N=N/c2cncc(C(N)=O)c2)cc1 [15 c]	decrease of Sirt3 inhibition upon 365 nm irradiation (factor) (Sirt3; PSS 365 nm versus thermal equilibrium): fourfold; IC50 (Sirt3; [12]): 4 ± 0.7 µM; IC50 (Sirt3; [13]): 1.1 ± 0.2 µM; decrease of Sirt2 inhibition upon 365 nm irradiation (factor) (Sirt2): three; inhibition at 10 µM (Sirt1; [15]): 6%
–	–	–	–	–	–	–	–	NC(=O)c1cncc(/N=N/c2c(O)ccc3ccccc23)c1 [7 c]	inhibition at 10 µM (Sirt3; non-irradiated, read-out: Sirt3 inhibition, percent inhibition relative to controls): 64%; inhibition at 10 µM (Sirt2; non-irradiated, read-out: Sirt2 inhibition, percent inhibition relative to controls): 55%; Sirt1 inhibition (class) (Sirt1; non-irradiated): n.i. (n.i.: no inhibition detected (<30 % @ 100 μM))
–	–	–	–	22	64	11.8 ± 1	7.2 ± 0.5 µM	NC(=O)c1cncc(/N=N/c2ccc(C#CCCCCO)cc2)c1 [15 g]	decrease of Sirt2 inhibition upon 365 nm irradiation (factor) (Sirt2): 1.6 fold; inhibition at 100 µM (Sirt1; [14]): 54%; inhibition at 100 µM (Sirt1; @ 100 μM, thermal equilibrium (Δ), read-out: Sirt1 inhibition Δ, percent inhibition): 60%
